# Source: patent US20250262201A1, “COMPOUNDS AND METHODS USEFUL FOR STABILIZING PHENYLALANINE HYDROXYLASE MUTATIONS” (Agios Pharmaceuticals, Inc., priority 2022, published 2025)
# Biological target: T1, human PAH with the R408W mutation (Homo sapiens, UniProt P00439, R408W)
# T1 construct: expressed in transfected cells
# T1 sequence (P00439 1-452 R408W): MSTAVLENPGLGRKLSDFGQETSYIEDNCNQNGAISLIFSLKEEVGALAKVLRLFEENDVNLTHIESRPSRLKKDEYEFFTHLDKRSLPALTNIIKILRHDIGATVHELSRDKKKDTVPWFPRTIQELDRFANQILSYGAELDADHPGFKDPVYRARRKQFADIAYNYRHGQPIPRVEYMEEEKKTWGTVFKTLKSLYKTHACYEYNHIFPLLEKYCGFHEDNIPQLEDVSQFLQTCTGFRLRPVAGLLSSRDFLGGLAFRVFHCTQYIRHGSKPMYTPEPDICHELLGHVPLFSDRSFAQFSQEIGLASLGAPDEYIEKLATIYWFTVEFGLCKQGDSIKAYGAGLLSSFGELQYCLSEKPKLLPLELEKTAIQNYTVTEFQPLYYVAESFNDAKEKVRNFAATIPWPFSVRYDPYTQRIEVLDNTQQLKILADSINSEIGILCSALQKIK
# Test: Cell Based Phenylalanine Flux Assay
# Details: A375 cells expressing human R408W PAH; 24 hrs compound incubation; 13C-Tyrosine by LC-MS; average where tested multiple times; read-out: AC50
row,AC50 [nM],Structure (SMILES)
1,1000 to 5000,"CC(O)c1nc(Cl)c(C(=O)N2CCc3[nH]cnc3[C@@H]2c2ccc3ccccc3n2)o1 (single isomer, unassigned) [Example 136]"
2,< 500,"CC(O)c1nc(Cl)c(C(=O)N2CCc3[nH]cnc3[C@H]2c2ccc3ccccc3n2)o1 (single isomer, unassigned) [Example 137]"
3,< 500,"CC(O)c1nc(Cl)c(C(=O)N2CCc3[nH]cnc3[C@H]2c2ccc3ccccc3n2)o1 (single isomer, unassigned) [Example 138]"
4,> 5000,"CC(F)(F)c1ncc(C(=O)N2CCc3[nH]cnc3[C@@H]2c2cn3ccccc3n2)s1 (single isomer, unassigned) [Example 235]"
5,1000 to 5000,"CC(F)(F)c1ncc(C(=O)N2CCc3[nH]cnc3[C@H]2c2cn3ccccc3n2)s1 (single isomer, unassigned) [Example 236]"
6,1000 to 5000,"O=C(c1oc(-c2ccccn2)nc1C1CC1)N1CCCc2[nH]cnc2[C@H]1c1cc2ccccc2cn1 (single isomer, unassigned) [Example 379]"
7,> 5000,"O=C(c1oc(-c2ccccn2)nc1C1CC1)N1CCCc2[nH]cnc2[C@@H]1c1cc2ccccc2cn1 (single isomer, unassigned) [Example 380]"
8,500 to 1000,"C[C@H]1CN(C(=O)c2nnc(-c3ccccn3)o2)[C@H](c2cc3ccccc3cn2)c2nc[nH]c21 (single isomer, unassigned) [Example 385]"
9,> 5000,"C[C@H]1CN(C(=O)c2nnc(-c3ccccn3)o2)[C@@H](c2cc3ccccc3cn2)c2nc[nH]c21 (single isomer, unassigned) [Example 386]"
10,500 to 1000,"C[C@@H]1CN(C(=O)c2nnc(-c3ccccn3)o2)[C@H](c2cc3ccccc3cn2)c2nc[nH]c21 (single isomer, unassigned) [Example 388]"
11,< 500,"O=C(c1cnc(-c2ccccn2)s1)N1CCc2[nH]cnc2C1c1ccc2ccccc2n1 (stereo in doubt) [Example 1, (R)-(2-(pyridin-2-yl)thiazol-5-yl)(4-(quinolin-2-yl)-6,7-dihydro-1H-imidazo[4,5-c]pyridin-5(4H)-yl)methanone]"
12,1000 to 5000,"O=C(c1cnc(-c2ccccn2)s1)N1CCc2[nH]cnc2C1c1ccc2ccccc2n1 (stereo in doubt) [Example 2, (S)-(2-(pyridin-2-yl)thiazol-5-yl)(4-(quinolin-2-yl)-6,7-dihydro-1H-imidazo[4,5-c]pyridin-5(4H)-yl)methanone]"
13,< 500,"CC(C)(C)c1ncc(C(=O)N2CCc3[nH]cnc3C2c2ccc3ccccc3n2)s1 (stereo in doubt) [Example 3, (R)-(2-(tert-butyl)thiazol-5-yl)(4-(quinolin-2-yl)-6,7-dihydro-1H-imidazo[4,5-c]pyridin-5(4H)-yl)methanone]"
14,> 5000,"CC(C)(C)c1ncc(C(=O)N2CCc3[nH]cnc3C2c2ccc3ccccc3n2)s1 (stereo in doubt) [Example 4, (S)-(2-(tert-butyl)thiazol-5-yl)(4-(quinolin-2-yl)-6,7-dihydro-1H-imidazo[4,5-c]pyridin-5(4H)-yl)methanone]"
15,500 to 1000,"O=C(c1cncs1)N1CCc2[nH]cnc2C1c1ccc2ccccc2n1 (stereo in doubt) [Example 5, (R)-(4-(quinolin-2-yl)-6,7-dihydro-1H-imidazo[4,5-c]pyridin-5(4H)-yl)(thiazol-5-yl)methanone]"
16,> 5000,"O=C(c1cncs1)N1CCc2[nH]cnc2C1c1ccc2ccccc2n1 (stereo in doubt) [Example 6, (S)-(4-(quinolin-2-yl)-6,7-dihydro-1H-imidazo[4,5-c]pyridin-5(4H)-yl)(thiazol-5-yl)methanone]"
17,500 to 1000,"Cc1nc(C(C)(C)C)oc1C(=O)N1CCc2[nH]cnc2C1c1ccc2ccccc2n1 (stereo in doubt) [Example 7, (R)-(2-(tert-butyl)-4-methyloxazol-5-yl)(4-(quinolin-2-yl)-6,7-dihydro-1H-imidazo[4,5-c]pyridin-5(4H)-yl)methanone]"

row,AC50 [nM],Structure (SMILES)
1,500 to 1000,"O=C(c1nnc(C2CC2)o1)N1CCc2[nH]cnc2C1c1ccc2ccccc2n1 (stereo in doubt) [Example 9, (R)-(5-cyclopropyl-1,3,4-oxadiazol-2-yl)(4-(quinolin-2-yl)-6,7-dihydro-1H-imidazo[4,5-c]pyridin-5(4H)-yl)methanone]"
2,1000 to 5000,"O=C(c1nnc(C2CC2)o1)N1CCc2[nH]cnc2C1c1ccc2ccccc2n1 (stereo in doubt) [Example 10, (S)-(5-cyclopropyl-1,3,4-oxadiazol-2-yl)(4-(quinolin-2-yl)-6,7-dihydro-1H-imidazo[4,5-c]pyridin-5(4H)-yl)methanone]"
3,< 500,"O=C(c1nnc(-c2ccc(F)cc2)o1)N1CCc2[nH]cnc2C1c1ccc2ccccc2n1 (stereo in doubt) [Example 11, (R)-(5-(4-fluorophenyl)-1,3,4-oxadiazol-2-yl)(4-(quinolin-2-yl)-6,7-dihydro-1H-imidazo[4,5-c]pyridin-5(4H)-yl)methanone]"
4,500 to 1000,"CC(C)(F)c1ncc(C(=O)N2CCc3[nH]cnc3C2c2ccc3ccccc3n2)s1 (stereo in doubt) [Example 15, (R)-(2-(2-fluoropropan-2-yl)thiazol-5-yl)(4-(quinolin-2-yl)-6,7-dihydro-1H-imidazo[4,5-c]pyridin-5(4H)-yl)methanone]"
5,> 5000,"CC(C)(F)c1ncc(C(=O)N2CCc3[nH]cnc3C2c2ccc3ccccc3n2)s1 (stereo in doubt) [Example 16, (S)-(2-(2-fluoropropan-2-yl)thiazol-5-yl)(4-(quinolin-2-yl)-6,7-dihydro-1H-imidazo[4,5-c]pyridin-5(4H)-yl)methanone]"
6,< 500,"CC(C)(F)c1ncc(C(=O)N2CCc3[nH]cnc3C2c2ccc3ccccc3n2)o1 (stereo in doubt) [Example 17, (R)-(2-(2-fluoropropan-2-yl)oxazol-5-yl)(4-(quinolin-2-yl)-6,7-dihydro-1H-imidazo[4,5-c]pyridin-5(4H)-yl)methanone]"
7,> 5000,"Fc1ccc(-c2nnc(N3CCc4[nH]cnc4C3c3ccc4ccccc4n3)o2)cc1 (stereo in doubt) [Example 19, (S)-2-(4-fluorophenyl)-5-(4-(quinolin-2-yl)-6,7-dihydro-1H-imidazo[4,5-c]pyridin-5(4H)-yl)-1,3,4-oxadiazole]"
8,500 to 1000,"Fc1ccc(-c2nnc(N3CCc4[nH]cnc4C3c3ccc4ccccc4n3)o2)cc1 (stereo in doubt) [Example 20, (R)-2-(4-fluorophenyl)-5-(4-(quinolin-2-yl)-6,7-dihydro-1H-imidazo[4,5-c]pyridin-5(4H)-yl)-1,3,4-oxadiazole]"
9,> 5000,"Cc1nc(C(C)(C)F)oc1C(=O)N1CCc2[nH]cnc2C1c1ccc2ccccc2n1 (stereo in doubt) [Example 21, (S)-(2-(2-fluoropropan-2-yl)-4-methyloxazol-5-yl)(4-(quinolin-2-yl)-6,7-dihydro-1H-imidazo[4,5-c]pyridin-5(4H)-yl)methanone]"
10,< 500,"Cc1nc(C(C)(C)F)oc1C(=O)N1CCc2[nH]cnc2C1c1ccc2ccccc2n1 (stereo in doubt) [Example 22, (R)-(2-(2-fluoropropan-2-yl)-4-methyloxazol-5-yl)(4-(quinolin-2-yl)-6,7-dihydro-1H-imidazo[4,5-c]pyridin-5(4H)-yl)methanone]"
11,< 500,"O=C(c1nnc(-c2c(F)cccc2F)o1)N1CCc2[nH]cnc2C1c1ccc2ccccc2n1 (stereo in doubt) [Example 23, (R)-(5-(2,6-difluorophenyl)-1,3,4-oxadiazol-2-yl)(4-(quinolin-2-yl)-6,7-dihydro-1H-imidazo[4,5-c]pyridin-5(4H)-yl)methanone]"
12,> 5000,"Cc1nc(-c2cnn(C)c2)oc1C(=O)N1CCc2[nH]cnc2C1c1ccc2ccccc2n1 (stereo in doubt) [Example 25, (S)-(4-methyl-2-(1-methyl-1H-pyrazol-4-yl)oxazol-5-yl)(4-(quinolin-2-yl)-6,7-dihydro-1H-imidazo[4,5-c]pyridin-5(4H)-yl)methanone]"
13,> 5000,"CC(C)(O)c1nnc(C(=O)N2CCc3[nH]cnc3C2c2ccc3ccccc3n2)o1 (stereo in doubt) [Example 27, (S)-(5-(2-hydroxypropan-2-yl)-1,3,4-oxadiazol-2-yl)(4-(quinolin-2-yl)-6,7-dihydro-1H-imidazo[4,5-c]pyridin-5(4H)-yl)methanone]"
14,1000 to 5000,"CC(C)(O)c1nnc(C(=O)N2CCc3[nH]cnc3C2c2ccc3ccccc3n2)o1 (stereo in doubt) [Example 28, (R)-(5-(2-hydroxypropan-2-yl)-1,3,4-oxadiazol-2-yl)(4-(quinolin-2-yl)-6,7-dihydro-1H-imidazo[4,5-c]pyridin-5(4H)-yl)methanone]"
15,< 500,"FC(F)(F)c1cnc(N2CCc3[nH]cnc3C2c2ccc3ccccc3n2)nc1 (stereo in doubt) [Example 29, (R)-2-(5-(5-(trifluoromethyl)pyrimidin-2-yl)-4,5,6,7-tetrahydro-1H-imidazo[4,5-c]pyridin-4-yl)quinoline]"
16,> 5000,"FC(F)(F)c1cnc(N2CCc3[nH]cnc3C2c2ccc3ccccc3n2)nc1 (stereo in doubt) [Example 30, (S)-2-(5-(5-(trifluoromethyl)pyrimidin-2-yl)-4,5,6,7-tetrahydro-1H-imidazo[4,5-c]pyridin-4-yl)quinoline]"
17,500 to 1000,"Cc1nc(-c2ccccn2)oc1C(=O)N1CCc2[nH]cnc2C1c1ccc2ccccc2n1 (stereo in doubt) [Example 31, (R)-(4-methyl-2-(pyridin-2-yl)oxazol-5-yl)(4-(quinolin-2-yl)-6,7-dihydro-1H-imidazo[4,5-c]pyridin-5(4H)-yl)methanone]"
